Key:
[1] = target: T1, IKZF2 (Homo sapiens, UniProt Q96SW2+Q9UKS7); test: Western-blot assay of substrate protein degradation in hPBMCs, IKZF2; assay type: cell-based; settings: 24 hours of compound treatment, compounds tested at 50 nM and 500 nM (concentration of the table not stated)
T1 construct: endogenous in cells; host or cells: hPBMCs (Milecell Biotechnologies)

[2] = target: T2, IKZF1 (Homo sapiens, UniProt Q13422+Q96SW2); test: Western-blot assay of substrate protein degradation in hPBMCs, IKZF1; assay type: cell-based; settings: 24 hours of compound treatment, compounds tested at 50 nM and 500 nM (concentration of the table not stated)
T2 construct: endogenous in cells; host or cells: hPBMCs (Milecell Biotechnologies)

[3] = tested on: TMD8; test: Tumor cell proliferation inhibition (CellTiter-Meiluncell Luminescent Cell Viability Assay), TMD8; settings: Homo sapiens, TMD8, 96 h, read-out: inhibitory activity (IC50, nM) against tumor cells proliferation, TMD8
Procedure: The tumor cells used herein were cultured in a cell culture medium listed in table 2 at 37°C in an incubator with 5% CO2. Prior to experimentation, all cell lines used were correctly identified by STR profiling, and tested negative for mycoplasma contamination using a mycoplasma detection kit through routine screenings.
On the following day, the test compounds of the present disclosure were subjected to serial dilution. […] Subsequently, 0.5 µL of the test compound dilution was transferred into the 96-well plate containing the cells, with each well containing 100 µL of cell culture medium. […] Into the 96-well plate, the diluted test compounds and corresponding detection reagents were added, resulting in final test compound concentrations of 500 nM and 10 nM, respectively. The experimental procedure is described below using the diluted 2 µM test compound as an example.
After the cells were treated with the compounds of the present disclosure for a specified period (the treatment durations were shown in Table 3), the cell viability assay reagent was added to the culture medium according to the kit's instructions to determine cell viability. […] All controls were treated using the same procedure as the compounds of the present disclosure. The growth inhibition curves for the compounds of the present disclosure were plotted using Prism GraphPad software, and the IC50 values were calculated therefrom.

[4] = target: T3, human Cereblon WT GST-tagged protein (Homo sapiens, UniProt Q96SW2); test: CRBN-binding affinity by HTRF (CEREBLON BINDING kit); settings: HTRF inhibitory activity, CEREBLON BINDING kit; read-out: HTRF IC50
T3 construct: purchased CISBIO 64BDCRBNPEH

[5] = target: T4, WEE1 (Homo sapiens, UniProt P30291+Q96SW2); test: Western-blot assay of substrate protein degradation in hPBMCs, WEE1; assay type: cell-based; settings: 24 hours of compound treatment, compounds tested at 50 nM and 500 nM (concentration of the table not stated)
T4 construct: endogenous in cells; host or cells: hPBMCs (Milecell Biotechnologies)

[6] = tested on: Human breast cancer cells (MDA-MB-231); test: Tumor cell proliferation inhibition (CellTiter-Meiluncell Luminescent Cell Viability Assay), MDA-MB-231; settings: MDA-MB-231, 96 h, read-out: inhibitory activity (IC50, nM) against tumor cells proliferation, MDA-MB-231
[7] = target: T5, GSPT1 (Homo sapiens, UniProt P15170+Q96SW2); test: Western-blot assay of substrate protein degradation in hPBMCs, GSPT1; assay type: cell-based; settings: 24 hours of compound treatment, compounds tested at 50 nM and 500 nM (concentration of the table not stated)
T5 construct: endogenous in cells; host or cells: hPBMCs (Milecell Biotechnologies)

[8] = target: T6, CK1α (Homo sapiens, UniProt P48729+Q96SW2); test: Western-blot assay of substrate protein degradation in hPBMCs, CK1α; assay type: cell-based; settings: 24 hours of compound treatment, compounds tested at 50 nM and 500 nM (concentration of the table not stated)
T6 construct: endogenous in cells; host or cells: hPBMCs (Milecell Biotechnologies)

[9] = tested on: NCI-H1975; test: Tumor cell proliferation inhibition (CellTiter-Meiluncell Luminescent Cell Viability Assay), NCI-H1975; settings: Homo sapiens, NCI-H1975, 96 h, read-out: inhibitory activity (IC50, nM) against tumor cells proliferation, H1975
[10] = target: T7, IKZF3 (Homo sapiens, UniProt Q96SW2+Q9UKT9); test: Western-blot assay of substrate protein degradation in hPBMCs, IKZF3; assay type: cell-based; settings: 24 hours of compound treatment, compounds tested at 50 nM and 500 nM (concentration of the table not stated)
T7 construct: endogenous in cells; host or cells: hPBMCs (Milecell Biotechnologies)

[11] = tested on: Human acute T lymphocytic leukemia cells (Molt-4); test: Tumor cell proliferation inhibition (CellTiter-Meiluncell Luminescent Cell Viability Assay), Molt-4; settings: MOLT-4, 96 h, read-out: inhibitory activity (IC50, nM) against tumor cells proliferation, Molt 4

T6 sequence (P48729 whole entry): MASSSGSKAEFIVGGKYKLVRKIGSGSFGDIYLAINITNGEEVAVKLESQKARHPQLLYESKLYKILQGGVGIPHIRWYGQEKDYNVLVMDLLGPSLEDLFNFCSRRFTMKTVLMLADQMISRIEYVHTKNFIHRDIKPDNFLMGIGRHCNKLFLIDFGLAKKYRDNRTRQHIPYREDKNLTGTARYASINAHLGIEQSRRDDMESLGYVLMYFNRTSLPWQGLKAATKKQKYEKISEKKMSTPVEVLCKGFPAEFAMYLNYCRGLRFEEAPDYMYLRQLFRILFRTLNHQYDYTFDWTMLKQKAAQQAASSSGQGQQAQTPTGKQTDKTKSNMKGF
T6 sequence (Q96SW2 whole entry): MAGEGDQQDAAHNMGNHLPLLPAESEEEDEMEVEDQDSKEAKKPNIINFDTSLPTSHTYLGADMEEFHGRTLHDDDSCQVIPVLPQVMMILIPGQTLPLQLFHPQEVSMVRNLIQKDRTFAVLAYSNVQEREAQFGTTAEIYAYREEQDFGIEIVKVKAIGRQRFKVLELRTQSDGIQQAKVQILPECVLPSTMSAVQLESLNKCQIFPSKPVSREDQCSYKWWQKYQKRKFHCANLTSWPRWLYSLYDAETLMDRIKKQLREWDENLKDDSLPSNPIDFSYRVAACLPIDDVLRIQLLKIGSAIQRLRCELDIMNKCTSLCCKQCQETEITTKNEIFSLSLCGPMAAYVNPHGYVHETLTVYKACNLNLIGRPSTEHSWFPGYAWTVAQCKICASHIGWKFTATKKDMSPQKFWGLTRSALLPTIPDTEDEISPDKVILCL
T6 sequence (Q16531 whole entry partner): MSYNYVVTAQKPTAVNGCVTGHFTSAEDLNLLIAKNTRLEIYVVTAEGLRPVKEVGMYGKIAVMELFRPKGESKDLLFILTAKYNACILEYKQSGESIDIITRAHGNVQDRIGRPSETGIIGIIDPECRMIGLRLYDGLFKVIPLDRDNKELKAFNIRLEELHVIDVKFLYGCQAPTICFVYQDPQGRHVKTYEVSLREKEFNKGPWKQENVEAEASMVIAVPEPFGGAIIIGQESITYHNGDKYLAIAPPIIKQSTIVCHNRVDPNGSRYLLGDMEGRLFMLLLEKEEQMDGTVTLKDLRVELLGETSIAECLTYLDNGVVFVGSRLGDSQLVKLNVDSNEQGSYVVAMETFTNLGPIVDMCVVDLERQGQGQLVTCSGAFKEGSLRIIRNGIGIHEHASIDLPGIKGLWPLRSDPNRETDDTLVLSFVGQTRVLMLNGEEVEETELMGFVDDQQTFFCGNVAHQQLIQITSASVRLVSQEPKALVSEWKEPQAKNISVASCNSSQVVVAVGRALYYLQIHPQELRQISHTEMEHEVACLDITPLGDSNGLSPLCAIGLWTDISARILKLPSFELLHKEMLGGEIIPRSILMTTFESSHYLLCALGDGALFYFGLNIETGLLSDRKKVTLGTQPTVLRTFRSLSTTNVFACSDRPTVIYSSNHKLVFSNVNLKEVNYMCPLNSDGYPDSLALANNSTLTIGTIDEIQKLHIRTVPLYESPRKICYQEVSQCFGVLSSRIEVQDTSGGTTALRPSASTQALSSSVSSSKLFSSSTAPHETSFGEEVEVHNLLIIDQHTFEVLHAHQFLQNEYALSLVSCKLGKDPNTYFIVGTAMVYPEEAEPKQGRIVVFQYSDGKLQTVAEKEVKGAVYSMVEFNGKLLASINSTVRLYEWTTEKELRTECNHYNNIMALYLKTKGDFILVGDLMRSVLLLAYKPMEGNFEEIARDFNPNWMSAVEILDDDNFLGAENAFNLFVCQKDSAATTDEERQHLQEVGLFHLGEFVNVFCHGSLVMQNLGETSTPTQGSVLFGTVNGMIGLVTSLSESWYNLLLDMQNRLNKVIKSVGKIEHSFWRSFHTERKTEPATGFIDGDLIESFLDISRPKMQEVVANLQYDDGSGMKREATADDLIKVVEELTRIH
T3 sequence (Q96SW2 whole entry): as the sequence (Q96SW2 whole entry) above
T1 sequence (Q9UKS7 whole entry): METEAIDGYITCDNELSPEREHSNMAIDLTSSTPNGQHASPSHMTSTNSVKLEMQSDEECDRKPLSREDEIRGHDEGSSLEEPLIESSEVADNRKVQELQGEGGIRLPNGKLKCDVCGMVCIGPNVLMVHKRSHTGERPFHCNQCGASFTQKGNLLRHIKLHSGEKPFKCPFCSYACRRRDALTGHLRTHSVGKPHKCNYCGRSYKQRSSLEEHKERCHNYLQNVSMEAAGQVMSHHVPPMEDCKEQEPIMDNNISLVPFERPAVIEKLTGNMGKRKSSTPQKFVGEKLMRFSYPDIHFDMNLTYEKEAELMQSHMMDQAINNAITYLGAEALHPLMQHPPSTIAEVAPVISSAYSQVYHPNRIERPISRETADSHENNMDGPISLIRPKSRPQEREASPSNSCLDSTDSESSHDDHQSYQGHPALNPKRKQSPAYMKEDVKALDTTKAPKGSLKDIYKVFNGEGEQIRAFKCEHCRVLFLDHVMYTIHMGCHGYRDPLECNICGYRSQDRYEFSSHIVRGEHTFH
T1 sequence (Q96SW2 whole entry): as the sequence (Q96SW2 whole entry) above
T1 sequence (Q16531 whole entry partner): as the sequence (Q16531 whole entry partner) above
T4 sequence (P30291 whole entry): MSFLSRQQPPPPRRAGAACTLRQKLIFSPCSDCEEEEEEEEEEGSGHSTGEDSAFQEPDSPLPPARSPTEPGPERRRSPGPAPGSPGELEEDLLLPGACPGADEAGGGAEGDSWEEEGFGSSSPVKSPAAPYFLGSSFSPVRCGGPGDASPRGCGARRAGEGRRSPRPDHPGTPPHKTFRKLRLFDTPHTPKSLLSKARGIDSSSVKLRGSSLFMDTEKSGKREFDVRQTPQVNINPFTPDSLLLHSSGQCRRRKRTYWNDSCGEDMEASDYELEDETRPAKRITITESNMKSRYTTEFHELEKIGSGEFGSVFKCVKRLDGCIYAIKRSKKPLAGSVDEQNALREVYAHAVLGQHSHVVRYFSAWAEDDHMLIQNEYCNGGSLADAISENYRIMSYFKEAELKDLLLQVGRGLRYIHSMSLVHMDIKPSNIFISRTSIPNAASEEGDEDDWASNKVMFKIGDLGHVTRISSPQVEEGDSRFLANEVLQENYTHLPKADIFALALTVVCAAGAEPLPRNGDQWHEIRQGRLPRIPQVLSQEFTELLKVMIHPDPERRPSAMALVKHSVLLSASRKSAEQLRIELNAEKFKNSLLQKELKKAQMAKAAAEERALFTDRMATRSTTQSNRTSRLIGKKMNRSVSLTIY
T4 sequence (Q96SW2 whole entry): as the sequence (Q96SW2 whole entry) above
T4 sequence (Q16531 whole entry partner): as the sequence (Q16531 whole entry partner) above
T7 sequence (Q9UKT9 whole entry): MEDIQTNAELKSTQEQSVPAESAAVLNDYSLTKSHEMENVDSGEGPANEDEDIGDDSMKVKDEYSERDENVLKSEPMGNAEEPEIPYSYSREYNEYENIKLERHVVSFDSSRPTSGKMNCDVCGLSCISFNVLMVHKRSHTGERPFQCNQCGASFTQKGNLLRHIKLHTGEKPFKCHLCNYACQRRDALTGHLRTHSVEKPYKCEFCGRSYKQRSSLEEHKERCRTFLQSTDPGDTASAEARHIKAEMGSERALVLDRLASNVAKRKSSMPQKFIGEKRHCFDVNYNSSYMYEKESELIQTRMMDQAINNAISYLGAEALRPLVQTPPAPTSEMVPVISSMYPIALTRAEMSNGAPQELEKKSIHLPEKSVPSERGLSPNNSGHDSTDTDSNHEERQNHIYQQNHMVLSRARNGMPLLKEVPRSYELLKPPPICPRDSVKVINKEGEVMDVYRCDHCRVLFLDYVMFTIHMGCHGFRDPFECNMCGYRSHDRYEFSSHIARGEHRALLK
T7 sequence (Q96SW2 whole entry): as the sequence (Q96SW2 whole entry) above
T7 sequence (Q16531 whole entry partner): as the sequence (Q16531 whole entry partner) above
T2 sequence (Q13422 whole entry): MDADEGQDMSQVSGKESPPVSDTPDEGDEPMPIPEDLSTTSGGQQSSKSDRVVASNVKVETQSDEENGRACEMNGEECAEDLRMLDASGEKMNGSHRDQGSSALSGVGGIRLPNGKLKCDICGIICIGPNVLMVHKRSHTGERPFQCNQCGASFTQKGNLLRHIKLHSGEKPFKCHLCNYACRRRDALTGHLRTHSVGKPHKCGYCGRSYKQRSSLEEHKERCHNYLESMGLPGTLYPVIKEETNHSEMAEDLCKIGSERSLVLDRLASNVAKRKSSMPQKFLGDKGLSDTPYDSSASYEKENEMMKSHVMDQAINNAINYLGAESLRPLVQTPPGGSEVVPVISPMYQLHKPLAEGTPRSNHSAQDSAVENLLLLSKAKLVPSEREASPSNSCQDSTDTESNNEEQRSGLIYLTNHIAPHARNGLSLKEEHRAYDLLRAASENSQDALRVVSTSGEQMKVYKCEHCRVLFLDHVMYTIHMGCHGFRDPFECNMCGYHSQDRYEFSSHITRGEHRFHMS
T2 sequence (Q96SW2 whole entry): as the sequence (Q96SW2 whole entry) above
T2 sequence (Q16531 whole entry partner): as the sequence (Q16531 whole entry partner) above

Compound	IKZF2 substrate protein remaining % [1]	IKZF 1 substrate protein remaining % [2]	IC50 [3] [nM]	IC50 [4] [nM]	Weel substrate protein remaining % [5]	IC50 [6] [nM]	GSPT1 substrate protein remaining % [7]	CK1a substrate protein remaining % [8]	IC50 [9] [nM]	IKZF3 substrate protein remaining % [10]	IC50 [11] [nM]
O=C1CCC(N2Cc3c(ccc(CN4CCC(c5noc6cc(F)ccc56)CC4)c3F)C2=O)C(=O)N1 (stereo not shown) [GT-04765, 3-(4-fluoro-5-((4-(6-fluorobenzo[d]isoxazol-3-yl)piperidin-1-yl)methyl)-1-oxoisoindolin-2-yl)piperidine-2,6-dione]	A (0% ≤ substrate protein remaining % ≤ 80%)	A (0% ≤ substrate protein remaining % ≤ 80%)	100 to 500	1000 to 1500	A (0% ≤ substrate protein remaining % ≤ 80%)	10 to 50	A (0% ≤ substrate protein remaining % ≤ 80%)	A (0% ≤ substrate protein remaining % ≤ 80%)	50 to 100	A (0% ≤ substrate protein remaining % ≤ 80%)	5 to 10
Cc1cc(C2=CCN(Cc3ccc4c(c3)CN(C3CCC(=O)NC3=O)C4=O)CC2)cs1 (stereo not shown) [GT-04587, 3-(5-((4-(5-methylthiophen-3-yl)-3,6-dihydropyridin-1(2H)-yl)methyl)-1-oxoisoindolin-2-yl)piperidine-2,6-dione]	A (0% ≤ substrate protein remaining % ≤ 80%)	A (0% ≤ substrate protein remaining % ≤ 80%)	10 to 50	500 to 1000	A (0% ≤ substrate protein remaining % ≤ 80%)	1 to 5	A (0% ≤ substrate protein remaining % ≤ 80%)	B (80%< substrate protein remaining %≤ 100%)	5 to 10	A (0% ≤ substrate protein remaining % ≤ 80%)	1 to 5
O=C1CCC(N2Cc3cc(CN4CC=C(c5ccsc5)CC4)ccc3C2=O)C(=O)N1 (stereo not shown) [GT-04585, 3-(1-oxo-5-((4-(thiophen-3-yl)-3,6-dihydropyridin-1(2H)-yl)methyl)isoindolin-2-yl)piperidine-2,6-dione]	A (0% ≤ substrate protein remaining % ≤ 80%)	A (0% ≤ substrate protein remaining % ≤ 80%)	10 to 50	< 500	A (0% ≤ substrate protein remaining % ≤ 80%)	5 to 10	A (0% ≤ substrate protein remaining % ≤ 80%)	A (0% ≤ substrate protein remaining % ≤ 80%)	10 to 50	A (0% ≤ substrate protein remaining % ≤ 80%)	1 to 5
O=C1CCC(N2Cc3cc(CN4CC=C(c5nccc(Cl)c5Cl)CC4)ccc3C2=O)C(=O)N1 (stereo not shown) [GT-04570, 3-(5-((3,4-dichloro-3',6'-dihydro-[2,4'-bipyridin]-1'(2'H)-yl)methyl)-1-oxoisoindolin-2-yl)piperidine-2,6-dione]	A (0% ≤ substrate protein remaining % ≤ 80%)	A (0% ≤ substrate protein remaining % ≤ 80%)	10 to 50	500 to 1000	A (0% ≤ substrate protein remaining % ≤ 80%)	1 to 5	A (0% ≤ substrate protein remaining % ≤ 80%)	A (0% ≤ substrate protein remaining % ≤ 80%)	10 to 50	A (0% ≤ substrate protein remaining % ≤ 80%)	1 to 5
O=C1CCC(N2Cc3cc(CN4CCN(c5nccc(Cl)c5Br)CC4)ccc3C2=O)C(=O)N1 (stereo not shown) [GT-04615, 3-(5-((4-(3-bromo-4-chloropyridin-2-yl)piperazin-1-yl)methyl)-1-oxoisoindolin-2-yl)piperidine-2,6-dione]	A (0% ≤ substrate protein remaining % ≤ 80%)	A (0% ≤ substrate protein remaining % ≤ 80%)	500 to 1000	500 to 1000	A (0% ≤ substrate protein remaining % ≤ 80%)	100 to 500	A (0% ≤ substrate protein remaining % ≤ 80%)	A (0% ≤ substrate protein remaining % ≤ 80%)	100 to 500	A (0% ≤ substrate protein remaining % ≤ 80%)	10 to 50
